Reference: patent US20250161478A1, “LINKER PAYLOADS AND CONJUGATES THEREOF” (priority 2021, published 2025)
Like-named read-outs stand apart in the source and are kept apart here.

Experiments:
[1] = test system: Ramos.2G6.4C10 (no CD33 expression) cells; assay: Cytotoxicity of anti-CD33 ADCs in Ramos cells; assay type: cell-based
Excerpt: (§1) The AVG % values and standard deviations were transferred to GraphPad Prism 9.1.2.

KG-1 cells = assay: Cytotoxicity of anti-CD33 ADCs in KG-1 cells; assay type: cell-based; settings: for IC50: KG-1 cells treated for 3 or 4 days, n = 3
Excerpt: as §1

[2] = test system: Daudi (no CD33 expression) cells; assay: Cytotoxicity of anti-CD33 ADCs in Daudi cells; assay type: cell-based
Excerpt: as §1

[3] = test system: HL-60 acute myeloid leukemia (AML) cell xenograft tumors; assay: In vivo efficacy of anti-CD33 ADCs in HL-60 leukemia xenograft; settings: single i.v. 10 mg/kg
Protocol: In vivo anti-leukemia xenograft efficacy was evaluated for anti-CD33 ADCs LNAuM (DAR=8.0) and GMAuM (DAR=8.0), as well as anti-CD33 antibodies LN and GM. HL-60 acute myeloid leukemia (AML) cells were obtained from the ATCC and cultured according to the manufacturer's instructions. The study was performed at the TCDM/Central Animal Laboratory, University of Turku, Finland, according to the appropriate ethical committee approval. Cells for inoculation to mice were prepared in vigorous exponential growth phase. 2 million cells in 50% Matrigel were inoculated s.c. to the flank of each mouse (female athymic nude mice between 8-10 weeks of age). Clinical signs and general behavior of the animals was observed regularly. […] Tumor growth was followed by palpation. After caliper measurement, tumor volume was calculated according to 0.5×length×width^2. The first dosings were administered when average tumor volume reached 100 mm^3. […] Intravenous (i.v.) treatment of 10 mg/kg either antibody or ADC in PBS was given once (single dose regimen), while the control group received no treatment.

[4] = test system: B16-F10 mouse melanoma tumors; assay: In vivo efficacy of PNU-ADCs in B16-F10 mouse melanoma model (Example 31); design: species or system mice
Protocol: In vivo anti-tumor efficacy of anti-TYRP1 ADCs (TAPeD, FLPeD, CHPeD and FLCPeMg) was evaluated in the B16-F10 mouse melanoma model as described above. […] Tumor growth was followed by palpation, and ADC dosings were administered when tumor sizes reached 60-110 mm^3, between 2-7 days after the inoculation. […] A single i.v. injection of 5 mg/kg ADC in PBS was given on the injection day and the tumor sizes were followed for at least 28 days. […] Another xenograft experiment was performed similarly as above. In this experiment, 10 xenografted mice received no treatment, while 10 xenografted mice were given three i.v. doses of 10 mg/kg TA99 antibody on days 2, 7 and 12 after the inoculation (3×10 mg/kg at 5 day intervals). In every one of these 20 mice the tumors grew to >200 mm^3 during 28 days' follow-up period.

[5] = In vivo tolerability of PNU-ADCs in normal mice; design: species or system C57BL/6J mice; settings: for Dose-limiting toxicity dose level / MTD (maximum tolerated dose): single i.v. dose; for Dose-limiting toxicity dose level: n=3, followed up to 30 days; for MTD (maximum tolerated dose): n=3, next lower dose below the dose-limiting toxicity dose level
Protocol: Tolerability and safety of ADCs conjugated with PNU-EDA linker-payloads were tested in normal C57BL/6J mice. Female young adult mice at the age of 8-10 weeks were used, 3 mice/group (n=3). […] Clinical signs, body weight and general behavior of the animals were observed regularly. Dose-limiting toxicity was observed as either over 10% reduction of average body weight in the group or acute toxicity in any animal in the group. Maximum tolerated dose (MTD) was determined as the next lower dose below the dose-limiting toxicity dose level. ADCs were prepared as described above and a single i.v. dose of the ADC was given on the first day of the study. The mice were followed for up to 30 days if no dose-limiting toxicity was observed.

HL-60 cells = assay: Cytotoxicity of anti-CD33 ADCs in HL-60 cells; assay type: cell-based; settings: HL-60 cells treated for 5 days
Excerpt: as §1

MOLM-13 cells = assay: Cytotoxicity of anti-CD33 ADCs in MOLM-13 cells; assay type: cell-based; settings: MOLM-13 cells treated for 3 days
Excerpt: as §1

[6] = ADC concentration in serum by ELISA (systemic exposure); assay type: in vivo, mice; settings: trapezoidal method, 10 mg/kg i.v.
Protocol: Serum samples (from 40 μl blood) were taken from each mouse in the treatment groups as well as two mice in the control group to follow systemic exposure of the compounds on day 1, day 5 and day 9 after dosing. ADC concentrations in the serum samples were analyzed by ELISA using FastELISA Human immunoglobulin quantification kit (RD-Biotech) according to the manufacturer's instructions. Between 1 d-9 d, LNAuM had better systemic exposure than GMAuM and GMAuM was eliminated faster from circulation by Day 9 than LNAuM.

[7] = test system: CD33- cell lines Ramos and Daudi versus CD33+ cells; assay: In vitro therapeutic window, CD33- versus CD33+ cell lines; assay type: cell-based; settings: IC50 not reached at 300 nM in Ramos and Daudi versus CD33+ cells
K-562 (low CD33) cells = assay: Cytotoxicity of anti-CD33 ADCs in K-562 cells; assay type: cell-based; settings: K-562 (low CD33) cells treated for 3 days
Excerpt: as §1

[8] = test system: IGR-1 human melanoma cells; assay: Cytotoxicity of ADCs, PrestoBlue cell viability, IGR-1 cells; assay type: cell-based
Protocol: (§2) Toxicity of anti-TYRP ADCs was tested with SK-MEL-28 (ATCC: HTB®-72™) SK-MEL-30 (DSMZ: ACC 151) and/or IGR-1 (DSMZ: ACC 236) human melanoma cells.
IGR-1 cells were seeded in 96-well plate, 2000 cells/well, and cultivated in 10% FBS/DMEM-medium under standard cell culture conditions. After overnight culture, the diluted ADCs or unconjugated antibodies (concentration range 0.1 nM-300 nM) were added to cells, and incubated for 3-5 days. The viability of the cells was evaluated with PrestoBlue cell viability reagent.
as §1

[9] = test system: SK-MEL-30 human melanoma cells; assay: Cytotoxicity of ADCs, PrestoBlue cell viability, SK-MEL-30 cells; assay type: cell-based; settings: incubated 3-5 days, ranges are over n experiments
Protocol: as §2
SK-MEL-30 were seeded in 96-well plate, 2000 cells/well or 3000 cells/well and cultivated in 10% FBS/RPMI 1640-medium under standard cell culture conditions. After overnight culture, diluted ADCs or antibodies were added to the cells, and incubated for 3-5 days. For cell control, the cells were treated with medium without ADC. The viability of the cells was evaluated with PrestoBlue cell viability reagent.
as §1

[10] = test system: B16-F10 mouse melanoma tumors; assay: In vivo efficacy in B16-F10 syngeneic tumor mice (Example 9); design: species or system C57BL/6J mice; settings: single i.v. 5 mg/kg two days after inoculation, six mice/group
Excerpt: In vivo anti-tumor efficacy of ADC of monoclonal TA99 IgG2a antibody, glycoconjugated TA99 ADC with DBCO-Val-Ser(GlcA)-EDA-PNU payloads (TA99-PNU ADC, DAR=2) and TA99 ADC with maleimidoacetyl-EDA-PNU payloads (TA99-M-PNU ADC, DAR=4), prepared and maleimide-stabilized as described above, was compared to non-treated mice. B16-F10 mouse melanoma cells were obtained from the ATCC (USA) and cultured according to the manufacturer's instructions to study efficacy of antibody-drug conjugates in highly treatment-resistant syngeneic tumors in female adult C57BL/6J mice at the age of about 8-weeks. […] Tumor growth was followed by palpation. […] The first dosings were administered two days after the inoculation due to the high take rate and very rapid growth of the tumors. Mice were randomly divided into study groups. […] Unconjugated antibody (TA99/anti-gp75, Invivogen) was used in this study as the control treatment.

[11] = single 5 mg/kg i.v. dose on days 2-7 when tumors reach 60-110 mm^3, 6 mice/group, at least 28 days
[12] = 5 mice/group, 30 days follow-up

## lintuzumab
[1]; Ramos cells
  Unconjugated antibody: no effect up to (highest concentration tested): > 300 nM
KG-1 cells; KG-1 cells
  Unconjugated antibody: no effect up to (highest concentration tested): > 300 nM
[2]
  Unconjugated antibody: no effect up to (highest concentration tested): > 300 nM
[3]; 5 mice/group
  duration of tumor growth inhibition: about 20 days

## Chimeric TA99-DBCO-Val-Ser(G1cA)-EDA-PNU [CHPeD]
[4]; [11]
  Number of mice with <200 mm^3 tumor at end of study: 2

## FLCPeMa: cysteine engineered flanvotumab HC N299C conjugated with PeMa (MA-Ac-EDA-PNU), DAR 1.7
[5]
  Dose-limiting toxicity dose level: 20 mg/kg
  MTD (maximum tolerated dose): 15 mg/kg

## lintuzumab-maleimidoacetyl-β-Ala-Val-Ser(Glc)-PAB-MMAU [LNAuM]
[1]; Ramos.2G6.4C10 cells, no CD33 expression
  IC50: > 300 nM
HL-60 cells; n = 4, read-out: IC50 (AVG ± standard deviation)
  IC50: 0.272 ± 0.181 nM
HL-60 cells; range over n experiments, read-out: IC50
  IC50: 0.024 to 0.459 nM
KG-1 cells; read-out: IC50
  IC50: 0.144 to 0.313 nM
KG-1 cells; read-out: IC50 (AVG ± standard deviation)
  IC50: 0.242 ± 0.088 nM
MOLM-13 cells; n = 3, read-out: IC50 (AVG ± standard deviation)
  IC50: 0.039 ± 0.016 nM
MOLM-13 cells; read-out: IC50
  IC50: 0.023 to 0.055 nM
[6]
  AUC(1-9 d), partial area under curve between 1 d-9 d: 200 mg·days/L
[7]
  in vitro therapeutic window: greater than 10000
K-562 (low CD33) cells
  IC50: 24 to 66 nM
[2]; no CD33 expression, treated for 3 days
  IC50: > 300 nM
[3]
  toxicity (in words): no toxicity was detected
[3]; [12]
  mice in which tumors disappeared without regrowth: 5/5

## FLCPeMala: cysteine engineered flanvotumab HC N299C conjugated with PeMala (MA-Ac-β-Ala-EDA-PNU), DAR 2.0
[8]
  IC50 values against IGR-1 cells (in words): picomolar
[5]
  MTD (maximum tolerated dose): 5 mg/kg

## gemtuzumab
[3]; [12]
  tumor growth (in words): tumors grew fast

## gemtuzumab-maleimidoacetyl-β-Ala-Val-Ser(Glc)-PAB-MMAU [GMAuM]
[6]
  AUC(1-9 d), partial area under curve between 1 d-9 d: 160 mg·days/L
[3]
  toxicity (in words): no toxicity was detected
[3]; [12]
  mice in which tumors disappeared without regrowth: 5/5

## FLCPeMg: cysteine engineered flanvotumab HC N299C conjugated with PeMg (MA-Ac-β-Ala-VS(GlcA)-EDA-PNU), DAR 2.2
[4]; [11]
  Number of mice with <200 mm^3 tumor at end of study: 2
[8]
  IC50 values against IGR-1 cells (in words): picomolar
[5]
  Dose-limiting toxicity dose level: 12.5 mg/kg

## Flanvotumab-DBCO-Val-Ser(GlcA)-EDA-PNU [FLPeD]
[4]; [11]
  Number of mice with <200 mm^3 tumor at end of study: 2
[8]
  IC50 values against IGR-1 cells (in words): picomolar
[9]
  IC50: 1.3 to 8.2 nM
[5]
  Dose-limiting toxicity dose level: 15 mg/kg
  MTD (maximum tolerated dose): 10 mg/kg

## TA99
[4]; 3 × 10 mg/kg i.v. on days 2, 7 and 12 after inoculation, 10 mice/group, 28 days
  Number of mice with <200 mm^3 tumor at end of study: 0
[5]; 20 mg/kg or 30 mg/kg
  toxicity (in words): No toxicity was observed
[10]
  tumor growth (in words): tumors grew rapidly
